Measurements from patent publication US7109329B2, “Neurologically active compounds and compounds with multiple activities” (priority 1988, dated 2006).

Tests used:
[1] = for core temperature twenty minutes after injection: room temperature 21° C., G 12 mg/kg, D 6 mg/kg or combination; for core temperature twenty minutes after injection / mean core temperature one hour after injection: I.P.; for mean core temperature one hour after injection: room temperature 19.4° C., guanabenz acetate 12 mg/kg, pentabarbital 25 mg/kg, ketamine 80 mg/kg; for core temperature allowed to fall to: 4 mg intraperitoneally, ambient 21° C., before transfer to 42° C. room (guanabenz: after about 15 minutes)
Experimental: Room temperature was 21.5° C.
The core temperatures of the rats were allowed to fall to approximately 30° C., after about 15 minutes. At that time, the rats were placed in a temperature controlled room maintained at 42° C., together with 2 control rats treated only with the dextrose solution.
The core temperatures of the rats were allowed to fall to approximately 30° C. At that time, the rats were placed in a temperature controlled room maintained at 42° C., together with two control rats treated only with the dextrose solution.

[2] = Anesthesia in rats judged by reflexes and wakefulness; details: for anesthesia judged by reflexes (patellar, urethro-anal, startle, corneal etc.) after 30 minutes: room temperature 21° C., G 12 mg/kg, D 6 mg/kg or combination; for anesthesia judged by reflexes (patellar, urethro-anal, startle, corneal etc.) after 30 minutes / appearance of ears and digits of anesthetized animals / survival at the given doses / reflexes tested (as in Examples 48–53): I.P.; for appearance of ears and digits of anesthetized animals / reflexes tested (as in Examples 48–53): guanabenz acetate 12 mg/kg; for appearance of ears and digits of anesthetized animals / survival at the given doses / reflexes tested (as in Examples 48–53): pentabarbital 25 mg/kg, ketamine 80 mg/kg; for reflexes tested (as in Examples 48–53): room temperature 19.4° C.
[3] = Activities and properties of the compounds (Table III codes listed as Specific Properties in Table IV); details: codes of Table III; higher levels of activity
Description: Certain of the compounds produce a profound hypothermia, but without anesthetizing. […] Table III, following, sets forth a list of the other properties of these guanidino compounds, which arise from their alpha-adrenergic agonist activity, combined with any inherent activity of the reactants chosen to achieve the final compound.
Except for items numbered 22 and 24–28 in Table III, substantially all of the guanidino compounds of this invention, as a result of their structure-activity relationship, are potent with respect to all of the above activities. However, as would be expected, various compounds have different, higher levels of, activities and properties which are listed as “Specific Properties”, with the Compounds numbered, in Table IV, below, according to the numbers in Tables I and II.

[4] = Reversal of guanabenz-induced anesthesia and hypothermia by antagonists; type: in vivo, rat; details: for effect on guanabenz-induced anesthesia / effect on guanabenz-induced hypothermia (body temperature): guanabenz-treated rats (4 mg I.P.), Yohimbine 10 mg I.P.
[5] = Formation of scar tissue at the trauma site; type: in vivo
Description: It is believed that these mixed agonists interfere with triple helix formation in the synthesis of collagen protein, thus preventing or reducing the formation of hard scar tissue at the trauma site.
The purpose of liquid nitrogen is to reduce the structural integrity of the collagen laden, glial scar tissue, by freezing and defrosting. Collagenase then initiates a debridgement of the scar without attacking the nervous and osseous tissue. If required, streptokinase, or alteplase, both plasminogen activators can also be used to bring about a complete debridgement. In addition to 3-amino-propionitrile (a latherogen), 5-fluorodeoxyuridine and dehydroproline can be used to arrest further glial and fibroblastic invasion of the scar region, respectively.

[6] = Core temperature and behaviour of treated rats in a room at 42° C.; type: in vivo, rat; details: 4 mg intraperitoneally; for core temperature in the 42° C. room: placed at core temperature about 30° C.
[7] = Blood pressure after administration, cat; type: in vivo
[8] = Spinal cord transection in rats: recovery of hind limb function and reflexes under treatment; type: in vivo, rat
Experimental: The spinal cord of a group of rats was completely transected. After surgery, the rats were treated with guanabenz.
The rats presented with a condition of bloody eyes and nose for a period of 2 to 5 days after the transection. During the first two-weeks, proper plantar placement, weight bearing on the hind limbs and/or coordinated walking was not present.
In a further group of six rats the spinal cord was transected in accordance with the above Comparative Examples. After surgery and cleaning and mechanical treatment of the wounds in the same fashion, an intraperitoneal injection of 7-(guanidino-acetyl-theophylline (“C”) was administered at a dose of 5.0 mg/kg 24 hours post surgery. Within a 7 to 9 day period, the rats engaged in walking movements of the hind limbs coordinated with those of the front limbs and the hind limbs, including proper plantar placement and full weight bearing on the hind limbs.
Within 36 hours after the spinal cord transection, i.e., only 12 hours after initial administration of Compound C, the initial bloody eyes and nose condition had abated. […] Further the animals were alert and continued to eat in substantially normal quantities.
Starting 24 hours post-transection, immediately after each intraperitoneal administration of Compound C, reflexes such as the tail-flick and cross-extension would return, within 12 minutes post injection. […] Within 8 to 11 days the response became sustained, and was accompanied by long-term therapeutic restoration of coordinated movements, plantar placements and weight-bearing by the hind limbs.

[9] = Spasticity in previously untreated spinal cord transected rats (Working Example 2); type: in vivo, rat; details: 4.0 mg/kg BID intraperitoneally for 7 days
Description: It was noted that some of the untreated rats in Comparative Example A developed severe spasticity three weeks after transection.

[10] = Blood pressure after administration, sheep; type: in vivo
[11] = Electrical tail stimulation, vocalization threshold (anesthesia) in rats; type: in vivo, rat; details: guanabenz-anesthetized rats, 40 mgs. aminophylline
Experimental: A fifth rat was treated with merely an equal amount of the dextrose solution without guanabenz acetate. The rats were subjected to an electrical tail stimulation, by electrodes attached to their tails, to determine the point of positive (threshold) vocalization.
The normal vocalization threshold, and the point at which the control rat vocalized was approximately 7 volts. […] To bring the rats out of anesthesia, the rats were then injected with 40 mgs. of aminophylline, also in 1 ml of a 5% aqueous dextrose solution. […] The normal threshold for vocalization was reestablished, as there was no vocalization at 6 volts following recovery from anesthesia.
The rats were maintained under anaesthesia for a period of 50 minutes before injection of the aminophylline.

[12] = Intravenous anesthesia of a 70 kg mammal; type: in vivo; details: 70 kg mammal, 20 mg aminophylline intravenous over five minutes
Experimental: Thereafter, an intravenous injection containing 20 mg of aminophylline is administered over a period of five minutes. The large mammal is fully awakened within about 20 minutes, appearing alert and refreshed.
The period of time required to fully reverse the anesthesia can be increased or decreased by proportionally changing the amount of the antagonist. After metabolism of guanabenz, the mammal will spontaneously awaken, within about three to six hours after the I.V. drip is discontinued.

[13] = 4 mg I.P., room temperature 21.5° C.
[14] = 5.0 mg/kg intraperitoneal 24 hours post surgery
[15] = six anesthetized rats also injected with aminophylline, then tolazoline

CN1C(=O)CN=C(c2ccccc2)c2cc(Cl)ccc21 [diazepam]
core temperature twenty minutes after injection [1]: no change | anesthesia judged by reflexes (patellar, urethro-anal, startle, corneal etc.) after 30 minutes [2]: all such reflexes were present

Cn1c(=O)c2c(ncn2CC(=O)NCc2nc3ccccc3[nH]2)n(C)c1=O [Compound 96, 2-(Theophylline-7-acetamido)-2-methylbenzimidazole]
Specific Properties [3]: 3, adrenergic antagonist, 12 | antagonism of both the hypothermic and anesthetic effects of guanidino compounds ([4]; rat, in vivo): reverse both the hypothermic and anesthetic effects

Clc1cccc(Cl)c1N=C1NCCN1 [clonidine]
effect on formation of the scar [5]: interfere with formation of the scar

CNC1(c2ccccc2Cl)CCCCC1=O (stereo not shown) [ketamine]
mean core temperature one hour after injection [1]: 34.5 °C | appearance of ears and digits of anesthetized animals [2]: semi-cyanotic | survival at the given doses [2]: did not survive | reflexes tested (as in Examples 48–53) [2]: disappeared

N=C(N)NN [Aminoguanidine]
effect on formation of the scar [5]: interfere with formation of the scar

CCCC(C)C1(CC)C(=O)NC(=O)NC1=O (stereo not shown) [pentabarbital]
mean core temperature one hour after injection [1]: 29.3 °C | appearance of ears and digits of anesthetized animals [2]: semi-cyanotic | survival at the given doses [2]: did not survive | reflexes tested (as in Examples 48–53) [2]: disappeared

COc1cc(C=NNc2ncc[nH]2)cc(OC)c1OC [Compound 13, Melazine]
mean intraperitoneal temperature [1, 13]: 30.2 °C | temperatures of the liver and the kidneys [1, 13]: ~32.7 °C | core temperature (colonic measurement) after drop ([1]; eight rats each, 4 mg I.P. in 5% dextrose, room temperature 21.5° C., normal value 36.5° C.): 21.5 °C | anesthetic state of the treated rats [2, 13]: remained awake

COC(=O)[C@@H]1[C@H]2C[C@H]3c4[nH]c5ccccc5c4CCN3C[C@@H]2CC[C@@H]1O [Yohimbine]
effect on guanabenz-induced anesthesia [4]: brought out of anesthesia | effect on guanabenz-induced hypothermia (body temperature) [4]: hypothermia was simultaneously reversed | antagonism of both the hypothermic and anesthetic effects of guanidino compounds ([4]; rat, in vivo): reverse both the hypothermic and anesthetic effects

C=CCN1CC[C@]23c4c5ccc(O)c4O[C@H]2C(=O)CC[C@@]3(O)[C@H]1C5 [Naloxone]
antagonism of both the hypothermic and anesthetic effects of guanidino compounds ([4]; rat, in vivo): not found to be a useful antagonist

Clc1cccc(Cl)c1C=Nc1nc(N=Cc2c(Cl)cccc2Cl)nc(N=Cc2c(Cl)cccc2Cl)n1 [Compound 18, 2,4,6-Tris (2,6-dichlorobenzylideneamino)-1,3,5-s-Triazine]
state of treated rats in the 42° C. room [6]: remained calm, but active | core temperature in the 42° C. room [6]: 30 °C | core temperature allowed to fall to [1]: approximately 30 °C

Cn1c(=O)c2c(ncn2CC(=O)NC(=N)N)n(C)c1=O [C, Guanidino-7-Acetyltheophylline]
blood pressure immediately after administration [7]: slight increase | time until blood pressure returned to basal level [7]: ≤ 10 min | time after initial administration until bloody eyes and nose condition had abated [8, 14]: 12 h | time after spinal cord transection until bloody eyes and nose condition had abated [8, 14]: ≤ 36 h | time post injection until return of reflexes (tail-flick, cross-extension) ([8]; after each intraperitoneal administration, starting 24 hours post-transection): ≤ 12 min | period until walking movements of the hind limbs coordinated with the front limbs, proper plantar placement and full weight bearing ([8]; six spinal transected rats, 5.0 mg/kg intraperitoneal from 24 hours post surgery): 7 to 9 days | signs of sedation or lethargy during the course of treatment ([8]; spinal transected rats, 5.0 mg/kg intraperitoneal): did not exhibit any signs of sedation or lethargy | time until the response became sustained with long-term restoration of coordinated movements ([8]; spinal transected rats, intraperitoneal): 8 to 11 days | time until marked decrease in spasticity ([9]; three spastic control rats three weeks after transection): ≤ 4 days | time until complete elimination of spasticity ([9]; three spastic control rats): 7 days | blood pressure immediately after administration [10]: slight increase | time until blood pressure returned to basal level [10]: ≤ 10 min

Cn1c(=O)c2c(ncn2CC(=O)NC(=O)c2ccc(C(=N)N)cc2)n(C)c1=O [Compound 97, 4-(Amidino)-N-(theophylline-7-acetyl)-benzamide]
Specific Properties [3]: 3, 2, 2, antagonist, 12 | antagonism of both the hypothermic and anesthetic effects of guanidino compounds ([4]; rat, in vivo): reverse both the hypothermic and anesthetic effects

c1ccc(CC2=NCCN2)cc1 [tolazoline]
antagonism of the hypothermic effect substantially without reducing the anesthetized condition ([4]; rat, in vivo): effect-specific alpha2-antagonists | reversal of anesthesia-hypothermia induced by guanabenz [4, 15]: completely reversed | time until anesthesia-hypothermia reversed and body temperature normal [4, 15]: ≤ 25 min

Bis(3,17-guanidinoacetoxy)estradiaole [Compound 147]
Specific Properties [3]: 27 (Estrogenic antagonist (breast cancer treatment))

CC(=O)[C@@]1(OC(=O)CNC(=N)N)CCC2C3CC(C)C4=CC(=O)CCC4(C)C3CCC21C (stereo partly shown) [Compound 185, 17-(Guanidinoacetoxy)-medroxyprogesterone]
Specific Properties [3]: 27, Progestin, androgenic

Cn1c(=O)c2[nH]cnc2n(C)c1=O [aminophylline]
effect on guanabenz-induced anesthesia [4]: caused them to awaken | effect on guanabenz-induced hypothermia (body temperature) [4]: practically no effect on body temperature | effect of injection on melazine-treated rats ([4]; three melazine-treated rats): no discernible effect | voltage at which vocalization was present ([11]; by 8 minutes after injection): 7 volts | voltage at which vocalization returned ([11]; within 6 minutes after injection): 12 volts | time until fully awakened from guanabenz anesthesia [12]: ≤ 20 min

17-[2-6-(N-1-Aminophthalazino-1-amidopropionyl)-2,5,7,8-tetramethylchroman-2-carbonyl]-17-cyproterone ester [Compound 140]
Specific Properties [3]: 26 (ESP Topical to treat male pattern

N=C(N)N/N=C/c1c(Cl)cccc1Cl [guanabenz acetate]
state of treated rats in the 42° C. room [6]: remained under anesthesia | core temperature in the 42° C. room [6]: 30 °C | core temperature allowed to fall to [1]: approximately 30 °C | mean core temperature one hour after injection [1]: 24.3 °C | core temperature twenty minutes after injection [1]: about 31 °C | reflexes tested (as in Examples 48–53) [2]: disappeared | anesthesia judged by reflexes (patellar, urethro-anal, startle, corneal etc.) after 30 minutes [2]: profound anesthesia
